A word on the IC50: it is the concentration that inhibits the measured activity by half. What is called solubility is the dissolved amount per volume that the medium holds.

One series has as its target T1, LMP7 (Homo sapiens, UniProt P20618+P28062).
T1 construct: endogenous in cells; host or cells: MOLT-4
The series is described as follows: ProCISE proteasome subunit assay, LMP7. It is filed as biochemical. The method in brief: (§1)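 MOLT-4 cell lysate was incubated with compound for 1 h at 25° C, then a subunit-binding probe was applied; probe-bound subunits were pulled down on streptavidin beads after guanidine denaturation and detected with subunit-specific antibodies by HRP chemiluminescence. Signal was normalized to protein and expressed as percent of DMSO control to fit IC50.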

Another series is described as follows: Solubility pH 7. The following applies: pH 7, aqueous buffer. It is filed as physicochemical.
Series [1] addresses i20S (20S immunoproteasome) (Homo sapiens, UniProt P20618+P28062). The series is described as follows: 20S proteasome assay, chymotrypsin-like activity (LLVY), i20S. The format is biochemical. The following applies: LLVY i20S Hu 1 h CONT: IC50 (nM), succinyl-Leu-Leu-Val-Tyr-AMC. An excerpt:
(§2) Assay buffer consisted of TE buffer [20 mmol/L Tris (pH 8.0), 0.5 mmol/L EDTA] with (20S) or without (cell lysate) 0.03% SDS. Reactions were initiated by enzyme or lysate addition and monitored for AMC product formation at 27jC with a plate-based spectofluorometer (Tecan).

In series [2] the target is c20S (constitutive 20S proteasome) (Homo sapiens, UniProt P20618+P28074). The series is described as follows: 20S proteasome assay, chymotrypsin-like activity (LLVY), c20S. The format is biochemical. The following applies: LLVY c20S Hu 1 h CONT: IC50 (nM), succinyl-Leu-Leu-Val-Tyr-AMC.
Excerpt: as §2

The next series concerns the target T2, β5 (Homo sapiens, UniProt P20618+P28074).
T2 construct: endogenous in cells; host or cells: MOLT-4
The series is described as follows: ProCISE proteasome subunit assay, β5. It is filed as biochemical. An outline of the steps:
as §1

Values after ≈ are worked out from the molar mass of the structure shown. Values joined by “and” are separate entries in the source; they are usually repeats but may differ in a detail not shown here. Equal values may be shown once.

Take `COc1ccc(C[C@H](NC(=O)[C@@H](C)NC(=O)c2ccccn2)C(=O)N[C@@H](CC2CCCC2)C(=O)[C@@]2(C)CO2)cc1` [Compound C-2031, N—((R)-1-(((S)-1-(((S)-3-cyclopentyl-1-((R)-2-methyloxiran-2-yl)-1-oxopropan-2-yl)amino)-3-(4-methoxyphenyl)-1-oxopropan-2-yl)amino)-1-oxopropan-2-yl)picolinamide]: the half-maximal inhibitory concentration (IC50) amounted to 1450 nM at LMP7 (MOLT4 lysate Hu 1 h), 763 nM in series [1], 18300 nM in series [2] and 26700 nM against β5 (MOLT4 lysate Hu 1 h). In addition, the solubility in the series “Solubility pH 7” was 41.7 µg/mL (≈ 75.7 µM).
Regarding `COc1ccc(C[C@H](NC(=O)[C@@H](C)NC(=O)c2cccnc2)C(=O)N[C@@H](CC2CCCC2)C(=O)[C@@]2(C)CO2)cc1` [Compound C-2032, N—((R)-1-(((S)-1-(((S)-3-cyclopentyl-1-((R)-2-methyloxiran-2-yl)-1-oxopropan-2-yl)amino)-3-(4-methoxyphenyl)-1-oxopropan-2-yl)amino)-1-oxopropan-2-yl)nicotinamide], the IC50 against LMP7 (MOLT4 lysate Hu 1 h) was determined as 452 nM; in series [1] it was 107 nM; in series [2] it was 1890 nM; at β5 (MOLT4 lysate Hu 1 h) it was 4050 nM. Further, in “Solubility pH 7”, the solubility is 172 µg/mL (≈ 313 µM).
For `COc1ccc(C[C@H](NC(=O)[C@@H](C)NC(=O)c2ccncc2)C(=O)N[C@@H](CC2CCCC2)C(=O)[C@@]2(C)CO2)cc1` [Compound C-2033, N—((R)-1-(((S)-1-(((S)-3-cyclopentyl-1-((R)-2-methyloxiran-2-yl)-1-oxopropan-2-yl)amino)-3-(4-methoxyphenyl)-1-oxopropan-2-yl)amino)-1-oxopropan-2-yl)isonicotinamide], in that order: 46700 nM, 1450 nM, 10100 nM, above 250000 nM and 165 µg/mL (≈ 299 µM).
For `COc1ccc(C[C@H](NC(=O)[C@@H](NC(=O)OCc2ccccc2)C2COC2)C(=O)N[C@@H](Cc2ccccc2)C(=O)[C@@]2(C)CO2)cc1` [Compound C-2035, benzyl ((S)-2-(((S)-3-(4-methoxyphenyl)-1-(((S)-1-((R)-2-methyloxiran-2-yl)-1-oxo-3-phenylpropan-2-yl)amino)-1-oxopropan-2-yl)amino)-1-(oxetan-3-yl)-2-oxoethyl)carbamate], in that order: 13.2 nM, 4.6 nM, 15.3 nM, 21.1 nM and 3.1 µg/mL (≈ 4.92 µM).
As for `COc1ccc(C[C@H](NC(=O)[C@@H](C)NC(=O)C2=CCCC2)C(=O)N[C@@H](CC2CCCC2)C(=O)[C@@]2(C)CO2)cc1` [Compound C-2037, N—((R)-1-(((S)-1-(((S)-3-cyclopentyl-1-((R)-2-methyloxiran-2-yl)-1-oxopropan-2-yl)amino)-3-(4-methoxyphenyl)-1-oxopropan-2-yl)amino)-1-oxopropan-2-yl)cyclopent-1-enecarboxamide], the 50% inhibitory concentration (IC50) was found to be 466 nM against LMP7 (MOLT4 lysate Hu 1 h), 891 nM in series [1], 6080 nM in series [2] and 9630 nM at β5 (MOLT4 lysate Hu 1 h). Moreover, the solubility in the series “Solubility pH 7” is 3.6 µg/mL (≈ 6.67 µM).
Take `COc1ccc(C[C@H](NC(=O)[C@@H](C)NC(=O)c2nc3ccccc3n2C)C(=O)N[C@@H](CC2CCCC2)C(=O)[C@@]2(C)CO2)cc1` [Compound C-2038, N—((R)-1-(((S)-1-(((S)-3-cyclopentyl-1-((R)-2-methyloxiran-2-yl)-1-oxopropan-2-yl)amino)-3-(4-methoxyphenyl)-1-oxopropan-2-yl)amino)-1-oxopropan-2-yl)-1-methyl-1H-benzo[d]imidazole-2-carboxamide]: the IC50 against LMP7 (MOLT4 lysate Hu 1 h) is 286 nM; in series [1], 722 nM and 649 nM; in series [2], 3550 nM and 7630 nM; against β5 (MOLT4 lysate Hu 1 h) it was 2700 nM. Also, in the series “Solubility pH 7”, the concentration in solution (solubility) was 1.8 µg/mL (≈ 2.98 µM).
Turning to `COc1ccc(C[C@H](NC(=O)[C@@H](C)NC(=O)C2=C(C)c3ccccc3C2)C(=O)N[C@@H](CC2CCCC2)C(=O)[C@@]2(C)CO2)cc1` [Compound C-2040, N—((R)-1-(((S)-1-(((S)-3-cyclopentyl-1-((R)-2-methyloxiran-2-yl)-1-oxopropan-2-yl)amino)-3-(4-methoxyphenyl)-1-oxopropan-2-yl)amino)-1-oxopropan-2-yl)-3-methyl-1H-indene-2-carboxamide], the IC50 turned out to be 75 nM against LMP7 (MOLT4 lysate Hu 1 h), 624 nM in series [1], 4610 nM in series [2] and 3750 nM against β5 (MOLT4 lysate Hu 1 h). This molecule came in with a solubility in the series “Solubility pH 7” of 0.3 µg/mL (≈ 0.499 µM).
With `COc1ccc(C[C@H](NC(=O)[C@@H](C)NC(=O)C[C@@H](C)O)C(=O)N[C@@H](CC2CCCC2)C(=O)[C@@]2(C)CO2)cc1` [Compound C-2042, (R)—N—((R)-1-(((S)-1-(((S)-3-cyclopentyl-1-((R)-2-methyloxiran-2-yl)-1-oxopropan-2-yl)amino)-3-(4-methoxyphenyl)-1-oxopropan-2-yl)amino)-1-oxopropan-2-yl)-3-hydroxybutanamide], the IC50 came to 621 nM at LMP7 (MOLT4 lysate Hu 1 h), 336 nM in series [1], 9450 nM in series [2] and 5920 nM on β5 (MOLT4 lysate Hu 1 h). The concentration in solution in “Solubility pH 7” (solubility) was 1830 µg/mL (≈ 3450 µM).
Consider `COc1ccc(C[C@H](NC(=O)[C@@H](C)NC(=O)C[C@H](C)O)C(=O)N[C@@H](CC2CCCC2)C(=O)[C@@]2(C)CO2)cc1` [Compound C-2043, (S)—N—((R)-1-(((S)-1-(((S)-3-cyclopentyl-1-((R)-2-methyloxiran-2-yl)-1-oxopropan-2-yl)amino)-3-(4-methoxyphenyl)-1-oxopropan-2-yl)amino)-1-oxopropan-2-yl)-3-hydroxybutanamide], for which the half-maximal inhibitory concentration (IC50) turned out to be 593 nM against LMP7 (MOLT4 lysate Hu 1 h), 271 nM in series [1], 15100 nM in series [2] and 11000 nM against β5 (MOLT4 lysate Hu 1 h). The solubility in “Solubility pH 7” was 2380 µg/mL (≈ 4480 µM).
Consider `COc1ccc(C[C@H](NC(=O)[C@@H](CN2CCOCC2)NC(=O)c2cc(C)no2)C(=O)N[C@@H](CC2CCCC2)C(=O)[C@@]2(C)CO2)cc1` [Compound C-2045, N—((R)-1-(((S)-1-(((S)-3-cyclopentyl-1-((R)-2-methyloxiran-2-yl)-1-oxopropan-2-yl)amino)-3-(4-methoxyphenyl)-1-oxopropan-2-yl)amino)-3-morpholino-1-oxopropan-2-yl)-3-methylisoxazole-5-carboxamide], for which the IC50 against LMP7 (MOLT4 lysate Hu 1 h) came to 220 nM; in series [1] it was 102 nM; in series [2], 1290 nM; on β5 (MOLT4 lysate Hu 1 h), 2940 nM. Besides, in “Solubility pH 7”, the concentration in solution (solubility) came to 160 µg/mL (≈ 250 µM).
On to `COc1ccc(C[C@H](NC(=O)[C@@H](C)NC(=O)C2=C(C)c3ccccc3C2)C(=O)N[C@@H](Cc2ccccc2)C(=O)[C@@]2(C)CO2)cc1` [Compound C-2048, N—((R)-1-(((S)-3-(4-methoxyphenyl)-1-(((S)-1-((R)-2-methyloxiran-2-yl)-1-oxo-3-phenylpropan-2-yl)amino)-1-oxopropan-2-yl)amino)-1-oxopropan-2-yl)-3-methyl-1H-indene-2-carboxamide], for which the IC50 against LMP7 (ProCISE LMP7 MOLT4 lysate Hu 1 h CONT: IC50 (nM)) came out at 48.6 nM; in series [1] it was 55.2 nM; in series [2] it was 411 nM; against β5 (ProCISE beta5 MOLT4 lysate Hu 1 h CONT: IC50 (nM)), 379 nM. In “Solubility pH 7”, this molecule showed a solubility of 1.4 µg/mL (≈ 2.3 µM).
For the molecule `C[C@@H](NC(=O)CC(C)(C)O)C(=O)N[C@@H](Cc1ccc(S(C)(=O)=O)cc1)C(=O)N[C@@H](CC1CCCC1)C(=O)[C@@]1(C)CO1` [Compound C-2050, N—((R)-1-(((S)-1-(((S)-3-cyclopentyl-1-((R)-2-methyloxiran-2-yl)-1-oxopropan-2-yl)amino)-3-(4-(methylsulfonyl)phenyl)-1-oxopropan-2-yl)amino)-1-oxopropan-2-yl)-3-hydroxy-3-methylbutanamide], the concentration for half-maximal inhibition (IC50) at LMP7 (MOLT4 lysate Hu 1 h) amounted to 67.1 nM; in series [1] it was 49.2 nM; in series [2], 521 nM; at β5 (MOLT4 lysate Hu 1 h), 595 nM. The same molecule showed a solubility in the series “Solubility pH 7” of 6160 µg/mL (≈ 10400 µM).
For `CC[C@](C)(O)CC(=O)N[C@H](C)C(=O)N[C@@H](Cc1ccc(OC)cc1)C(=O)N[C@@H](CC1CCCC1)C(=O)[C@@]1(C)CO1` [Compound C-2051, (S)—N—((R)-1-(((S)-1-(((S)-3-cyclopentyl-1-((R)-2-methyloxiran-2-yl)-1-oxopropan-2-yl)amino)-3-(4-methoxyphenyl)-1-oxopropan-2-yl)amino)-1-oxopropan-2-yl)-3-hydroxy-3-methylpentanamide], in that order: 54.3 nM, 34 nM, 459 nM, 883 nM and 241 µg/mL (≈ 430 µM).
With `CC[C@@](C)(O)CC(=O)N[C@H](C)C(=O)N[C@@H](Cc1ccc(OC)cc1)C(=O)N[C@@H](CC1CCCC1)C(=O)[C@@]1(C)CO1` [Compound C-2052, (R)—N—((R)-1-(((S)-1-(((S)-3-cyclopentyl-1-((R)-2-methyloxiran-2-yl)-1-oxopropan-2-yl)amino)-3-(4-methoxyphenyl)-1-oxopropan-2-yl)amino)-1-oxopropan-2-yl)-3-hydroxy-3-methylpentanamide], the IC50 against LMP7 (MOLT4 lysate Hu 1 h) amounted to 38.5 nM; in series [1], 10.8 nM; in series [2] it was 316 nM; against β5 (MOLT4 lysate Hu 1 h), 560 nM. In the series “Solubility pH 7”, the concentration in solution (solubility) came to 160 µg/mL (≈ 286 µM).
